This passage reports IC50 and inhibition results from patent US20190185479A1, “BICYCLIC NITROGENATED HETEROCYCLIC COMPOUND” (MITSUBISHI TANABE PHARMA CORPORATION, priority 2016, published 2019).

Assay type in all cases: biochemical
One experiment addresses T1, hPDE4D (Homo sapiens, UniProt Q08499).
T1 construct: purchased SB Drug Discovery
Nature of the experiment: PDE4 inhibition assay (IC50), Experimental Example 3. The note with it: hPDE4D; read-out: PDE inhibition assay IC50, PDE4. The procedure, abridged: (§1)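 Recombinant human enzymes incubated with compound and 3 nmol/L cAMP (final) in Tris-HCl pH 7.5 buffer with MgCl2, BSA, DTT, 2% DMSO final, 60 min at room temperature. Residual cAMP measured by TR-FRET (LANCE Ultra), reaction stopped with 0.5 mmol/L IBMX. IC50 from inhibition relative to no-compound (0%) and no-enzyme (100%) controls.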

For another experiment, the target named is T2, Human PDE7B (hPDE7B) (Homo sapiens, UniProt Q9NP56).
T2 construct: made in house; host or cells: COS-7 cells
Nature of the experiment: Measurement of PDE7 inhibitory activity (Experimental Example 1; residual cAMP, LANCE Ultra cAMP TR-FRET). The settings on record: cAMP 3 nmol/L, room temperature 60 minutes. Summed up: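 hPDE7B from transfected COS-7 cells reacted with 3 nmol/L cAMP (final) and compound (2% DMSO) in 50 mmol/L Tris-HCl pH 7.5, 1 mmol/L MgCl2, 0.1% BSA, 0.5 mmol/L DTT, 60 min at room temperature. Reaction stopped with IBMX; residual cAMP measured by TR-FRET. Inhibition scaled between no-compound and no-enzyme controls.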
(TR-FRET usually uses a lanthanide donor and a delayed reading to cut background.)

For another experiment, the target named is T3, hPDE8B (Homo sapiens, UniProt O95263).
T3 construct: purchased SB Drug Discovery
Nature of the experiment: PDE8 inhibition assay (IC50), Experimental Example 3. The note with it: at 1 μmol/L; read-out: inhibition rate (%) at prescribed concentration, PDE8. The procedure, abridged:
as §1

A further experiment has as its target hPDE10A (Homo sapiens, UniProt Q9Y233). Nature of the experiment: PDE10 inhibition assay (IC50), Experimental Example 3. The settings on record: hPDE10A; read-out: PDE inhibition assay IC50, PDE10. The procedure, abridged:
as §1

T1 sequence (Q08499 whole entry): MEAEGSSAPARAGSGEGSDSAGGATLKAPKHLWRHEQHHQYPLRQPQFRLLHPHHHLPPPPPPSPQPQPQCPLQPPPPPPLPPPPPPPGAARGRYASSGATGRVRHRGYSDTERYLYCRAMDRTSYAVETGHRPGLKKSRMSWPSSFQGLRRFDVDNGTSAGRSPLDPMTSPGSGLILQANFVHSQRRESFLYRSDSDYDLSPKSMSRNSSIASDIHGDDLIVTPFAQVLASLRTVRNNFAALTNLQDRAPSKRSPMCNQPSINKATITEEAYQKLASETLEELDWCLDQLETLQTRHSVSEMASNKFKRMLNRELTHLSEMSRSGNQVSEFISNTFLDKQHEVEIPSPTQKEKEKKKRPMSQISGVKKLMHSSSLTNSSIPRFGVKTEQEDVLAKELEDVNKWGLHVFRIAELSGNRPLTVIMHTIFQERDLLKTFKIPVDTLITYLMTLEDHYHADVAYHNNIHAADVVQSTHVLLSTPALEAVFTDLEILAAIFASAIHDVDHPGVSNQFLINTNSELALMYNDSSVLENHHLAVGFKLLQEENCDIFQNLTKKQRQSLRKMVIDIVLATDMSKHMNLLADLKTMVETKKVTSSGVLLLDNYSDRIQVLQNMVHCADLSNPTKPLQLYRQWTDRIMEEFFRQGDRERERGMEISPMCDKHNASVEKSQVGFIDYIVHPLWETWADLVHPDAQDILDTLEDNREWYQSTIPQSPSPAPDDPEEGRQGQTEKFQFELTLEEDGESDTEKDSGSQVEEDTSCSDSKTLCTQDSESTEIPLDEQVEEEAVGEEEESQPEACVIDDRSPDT
T3 sequence (O95263 whole entry): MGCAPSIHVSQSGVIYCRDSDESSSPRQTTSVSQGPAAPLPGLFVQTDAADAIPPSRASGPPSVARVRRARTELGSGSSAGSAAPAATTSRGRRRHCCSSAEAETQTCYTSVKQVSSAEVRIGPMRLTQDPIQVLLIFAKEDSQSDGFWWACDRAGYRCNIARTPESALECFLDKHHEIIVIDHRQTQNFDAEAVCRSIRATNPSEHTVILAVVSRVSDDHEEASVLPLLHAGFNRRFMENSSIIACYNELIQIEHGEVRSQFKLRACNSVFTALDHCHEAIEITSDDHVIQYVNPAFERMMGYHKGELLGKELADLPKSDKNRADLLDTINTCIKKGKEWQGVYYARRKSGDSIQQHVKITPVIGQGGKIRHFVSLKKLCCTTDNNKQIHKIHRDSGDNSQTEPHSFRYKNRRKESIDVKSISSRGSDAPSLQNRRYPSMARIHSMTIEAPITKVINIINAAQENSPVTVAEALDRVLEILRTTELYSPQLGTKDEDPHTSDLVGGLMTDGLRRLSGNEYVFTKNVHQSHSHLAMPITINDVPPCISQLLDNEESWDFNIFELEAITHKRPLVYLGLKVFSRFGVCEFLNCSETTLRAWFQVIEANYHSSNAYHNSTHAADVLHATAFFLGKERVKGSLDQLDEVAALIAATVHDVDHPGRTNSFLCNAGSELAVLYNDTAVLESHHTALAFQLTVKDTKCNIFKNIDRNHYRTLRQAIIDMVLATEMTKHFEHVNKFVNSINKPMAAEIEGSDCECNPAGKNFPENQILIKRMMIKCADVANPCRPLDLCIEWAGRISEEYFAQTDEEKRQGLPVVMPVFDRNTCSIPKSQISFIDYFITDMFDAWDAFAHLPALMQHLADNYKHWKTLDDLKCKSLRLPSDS
Sequence of hPDE10A (Q9Y233 290-1055 limits assumed): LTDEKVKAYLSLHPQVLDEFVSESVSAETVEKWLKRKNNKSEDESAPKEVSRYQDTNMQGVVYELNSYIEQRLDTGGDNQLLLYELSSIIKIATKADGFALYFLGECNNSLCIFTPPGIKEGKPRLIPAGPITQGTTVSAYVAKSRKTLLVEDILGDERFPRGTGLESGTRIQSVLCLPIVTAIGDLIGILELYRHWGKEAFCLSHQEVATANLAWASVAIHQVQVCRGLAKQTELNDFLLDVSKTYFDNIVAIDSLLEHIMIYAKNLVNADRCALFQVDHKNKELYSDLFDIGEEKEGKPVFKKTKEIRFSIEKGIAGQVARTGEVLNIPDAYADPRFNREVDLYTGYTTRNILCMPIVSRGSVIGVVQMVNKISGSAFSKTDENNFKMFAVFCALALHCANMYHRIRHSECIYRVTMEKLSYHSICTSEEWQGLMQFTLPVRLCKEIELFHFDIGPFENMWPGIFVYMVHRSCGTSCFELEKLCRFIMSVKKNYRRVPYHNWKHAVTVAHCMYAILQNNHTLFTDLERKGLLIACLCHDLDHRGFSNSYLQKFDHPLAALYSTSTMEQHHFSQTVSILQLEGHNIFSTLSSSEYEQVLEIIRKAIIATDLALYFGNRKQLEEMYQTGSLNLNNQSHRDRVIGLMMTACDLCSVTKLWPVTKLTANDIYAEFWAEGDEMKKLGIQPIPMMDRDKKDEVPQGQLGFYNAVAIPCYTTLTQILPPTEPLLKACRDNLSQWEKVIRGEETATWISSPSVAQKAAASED
T2 sequence (Q9NP56 whole entry): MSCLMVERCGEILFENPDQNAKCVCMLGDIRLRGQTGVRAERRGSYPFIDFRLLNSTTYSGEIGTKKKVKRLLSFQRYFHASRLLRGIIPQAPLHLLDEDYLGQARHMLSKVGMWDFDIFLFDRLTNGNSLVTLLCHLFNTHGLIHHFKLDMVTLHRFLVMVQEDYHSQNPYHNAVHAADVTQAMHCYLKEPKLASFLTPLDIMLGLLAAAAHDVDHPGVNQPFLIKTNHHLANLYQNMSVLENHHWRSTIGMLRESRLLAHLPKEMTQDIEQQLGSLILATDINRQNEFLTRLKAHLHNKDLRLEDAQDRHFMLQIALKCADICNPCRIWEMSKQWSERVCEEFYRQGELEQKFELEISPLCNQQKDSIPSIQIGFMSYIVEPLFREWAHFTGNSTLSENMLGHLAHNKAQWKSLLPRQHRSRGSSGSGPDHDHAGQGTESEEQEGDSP

As for `CC1(C)CCCN(c2nnc3c(N)ncc(C(F)(F)F)n23)C1` [Example 252, 3-(3,3-dimethylpiperidin-1-yl)-5-(trifluoromethyl) [1,2,4]triazolo[4,3-a]pyrazin-8-amine], the values for the IC50 on hPDE4D, at Human PDE7B (hPDE7B) and at hPDE10A were 1800 nM, less than 10 nM and 7400 nM, respectively. At hPDE8B, the inhibition at 1 µM is 53%.

In general, IC50 refers to the concentration needed to halve the response being measured.
